Here are results for one compound from patent publication US20150290105A1, “COMPOSITION COMPRISING SYRINGARESINOL FOR IMPROVING THE SKIN” (AMOREPACIFIC CORPORATION, priority 2011, published 2015).

The test system of data set [1] is Melanocytes (Mel-Ab cells). In words: Test of cytotoxicity (crystal violet cell viability) in mouse melanocytes. The class given is cell-based. Particulars: 24 hours. As for the experimental part: Cytotoxicity was tested for syringaresinol in mouse melanocytes as follows.
Melanocytes (Mel-Ab cells) derived from C57BL/6 (treated with Dooley et al.'s method) were cultured under the condition of 37° C. and 5% CO2 in Dulbecco's modified Eagle's medium (DMEM) containing 10% fetal bovine serum, 100 nM 12-O-tetradecanoylphorbol-13-acetate and 1 nM cholera toxin. The cultured Mel-Ab cells were detached with 0.25% trypsin-EDTA, cultured in a 24-well plate to a concentration of 10^5 cells/well and then treated with the syringaresinol prepared in Example. After culturing for 24 hours, the cells were washed with phosphate buffered saline (PBS, pH 7.2) and then stained using 0.1% crystal violet (Sigma) and 10% ethanol (EtOH) for 5 minutes at room temperature. After completely removing free crystal violet, the cells were washed 3 times with PBS (pH 7.2). The stained cells were treated with 95% ethanol (EtOH) for 1 hour at room temperature to extract crystal violet. The absorbance of the extract was measured at 540 nm using the Lambda 25 spectrophotometer (PerkinElmer) and cell viability (%) was calculated according to Equation 1.
Cell viability (%)=(A/B)×100 [Equation 1]
A: absorbance in the presence of syringaresinol
B: absorbance in the absence of syringaresinol

The subject of data set [2] is mushroom-derived tyrosinase. Description: Tyrosinase activity inhibiting effect (dopachrome formation). The class given is biochemical. Particulars: 10 ppm, 37° C. 10 minutes. How it is done:
The reaction solution was prepared by adding 500 μL of 0.1 M PBS, 15 μg of L-tyrosine and 50 μL of syringaresinol and then adding distilled water to make the final volume 1500 μL. A solution prepared through the same procedure but with Kojic acid instead of syringaresinol was used as a positive control. The concentration of all the samples used in experiment was set to 10 ppm. After adding 10 units of mushroom-derived tyrosinase to the reaction solution, followed by reaction at 37° C. for 10 minutes, the reaction was stopped by quickly transferring onto ice for 5 minutes. The synthesis rate of dopachrome produced was determined by measuring absorbance at 475 nm and tyrosinase activity inhibiting rate (%) was calculated therefrom.

The next data set concerns collagen IV. Description: UV-induced collagen breakdown in human keratinocytes (western blot). The class given is cell-based. Conditions: HaCaT cells, 50 μM, UVB 30 mJ/cm^2, FIG. 6. How it is done:
(§1) Human keratinocyte HaCaT cells were cultured in substantially the same manner as in Test Example 10.
The cultured cells were treated with trypsin to obtain a single-cell suspension. Then, the cells were distributed in a 6-well plate, with 2×10^5 cells per well, and cultured for 24 hours. Subsequently, after replacing the medium with DMEM not containing fetal bovine serum and culturing again for 24 hours, the cells were treated with 50 μM syringaresinol dissolved in DMSO. After treating for 24 hours, the cells were washed with PBS and UVB of 30 mJ/cm^2 was irradiated in PBS. After discarding the PBS, the cells were added to a medium containing syringaresinol of the same concentration. As a control group, the cells were cultured in the same manner without treating with syringaresinol. […] Then, after centrifuging at 4° C. for 10 minutes with 15,000 g, the supernatant was recovered and protein was quantitated using Bio-Rad Protein Dye ReagentTM. […] Bands on the film were scanned with PowerLook 2100 XL (UMAX) and analyzed with the image-analyzing program ImageMaster 2D Elite (Amersham Bioscience).
For orientation: A western blot detects proteins with antibodies after separation by electrophoresis.

Data set [3] can be described thus: Keratin reducing effect on human skin (Charm View). The class given is in vivo. As for the experimental part: In order to investigate whether syringaresinol can reduce the keratin of skin, syringaresinol of the same concentration as in Test Example 6 was applied on the inside of the lower arms of 50 male and female adults in their 20s and 30s and without skin diseases. 24 hours later, the reduced amount of keratin was measuring using Charm View (Moritex, Japan). The initial amount of skin keratin prior to application of the test substance measured with Charm View under a constant-temperature (24° C.), constant-humidity (40%) condition was used as a reference value, and the change in the amount of keratin was measured 24 hours later.

Data set [4] in a line: Transepidermal water loss (TEWL) in hairless mouse. The class given is in vivo, hairless mice (SKH: HR-1). Conditions: 3 weeks, FIG. 8. How it is done: 30-week-old female hairless mice (SKH: HR-1) weighing 25-39 g were purchased from Charles River Laboratories (Wilmington, Mass., USA). The mice were accustomed to the laboratory environment for a week and then grouped into normal groups and test substance-treated groups, with 5 mice per each group. The mice were allowed free access to water and feed under the condition of 12-hour light/dark cycles, 23.2° C. and 55.10% humidity. For the test substance-treated groups, a patch of 1% syringaresinol dissolved in a solvent (1,3-butylene glycol:ethanol=7:3) was applied 2 times for 2 days or 200 mg/kg syringaresinol was orally administered. The control groups were treated in the same way using the solvent of the same amount instead of syringaresinol. […] Before and after the UV radiation, skin wrinkles on the exposed part were taken with replica and measured using the Visiometer system (C+K). 3 weeks after the onset of experiment, transepidermal water loss (TEWL) was measured on the back part of the hairless mouse of each group using a wireless vapometer (Delfin Technologies, Ltd., SWL 4102). […] Transepidermal water loss is the quantity of water that passes from inside the body through the skin and a larger value means poor skin moisturization ability and damaged skin barrier function. […]

A further data set deals with filaggrin. Description: Filaggrin expression promoting effect in human keratinocytes. The class given is cell-based. Particulars: HaCaT cells, FIG. 5. As for the experimental part:
as §1
cDNA was synthesized in substantially the same manner as in Test Example 10 and the expression pattern of the filaggrin, involucrin and GAPDH genes was monitored substantially the same manner as in Test Example 10 using the synthesized cDNA and predesigned primers and probes (Applied Biosystems; […]; GAPDH, Hs99999905_ml).

Take `COc1cc(C2OCC3C(c4cc(OC)c(O)c(OC)c4)OCC23)cc(OC)c1O` (centres unmarked) [Syringaresinol, syringaresinol]: in data set [1], the “Cell viability (%)” value turned out to be 98.6%. Besides, the “Tyrosinase activity inhibiting rate (%)” value in data set [2] was 90.2%. For the same compound, the UV-induced collagen breakdown entry in the data set on collagen IV is on record as “inhibits collagen breakdown”. In addition, the “Amount of skin keratin, 24 hours later” value in data set [3] (1% applied on lower arm, 24 hours) is given as 11.9. Moreover, the “Amount of skin keratin, Before application” value in data set [3] (reference value, 24° C., 40% humidity) is reported as 20.3. The “UV-induced transepidermal water loss (TEWL)” value in data set [4] (application) and in data set [4] (oral administration) was “decrease in UV-induced transepidermal water loss” throughout. In addition, the Expression of filaggrin result in the data set with filaggrin was “increases the expression of filaggrin”.
